Reference: patent US20020052295A1, “Diacyl derivatives of propylene diamine having herbicidal activity” (priority 1999, published 2002)

Legend:
ABUTH = experiment: Pre-emergence herbicidal activity on ABUTH (velvetleaf); type: in vivo, Abutilon theophrasti; settings: for Pre-emergence activity (GR80) on ABUTH: lowest tested rate giving 80% or greater inhibition, approx. 14 days after planting and treating, greenhouse
Outline: (§1)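 Steps: sterilized fertilized topsoil potted; seeds sown, covered; compound (50:50 acetone/water dilution) applied to soil surface; 0.64 cm overhead irrigation; greenhouse 30/21 °C day/night; % inhibition vs untreated scored at ~14 d; GR80 calculated.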

SOLNI = experiment: Pre-emergence herbicidal activity on SOLNI (black nightshade); type: in vivo, Solanum nigrum; settings: for Pre-emergence activity (GR80) on SOLNI: lowest tested rate giving 80% or greater inhibition, approx. 14 days after planting and treating, greenhouse
Outline: as §1

AMARE = experiment: Pre-emergence herbicidal activity on AMARE (redroot pigweed); type: in vivo, Amaranthus retroflexus; settings: for Pre-emergence activity (GR80) on AMARE: lowest tested rate giving 80% or greater inhibition, approx. 14 days after planting and treating, greenhouse
Outline: as §1

DATST = experiment: Pre-emergence herbicidal activity on DATST (jimsonweed); type: in vivo, Datura stramonium; settings: for Pre-emergence activity (GR80) on DATST: lowest tested rate giving 80% or greater inhibition, approx. 14 days after planting and treating, greenhouse
Outline: as §1

CHEAL = experiment: Pre-emergence herbicidal activity on CHEAL (common lambsquarters); type: in vivo, Chenopodium album; settings: for Pre-emergence activity (GR80) on CHEAL: lowest tested rate giving 80% or greater inhibition, approx. 14 days after planting and treating, greenhouse
Outline: as §1

CONAR = experiment: Pre-emergence herbicidal activity on CONAR (field bindweed); type: in vivo, Convolvulus arvensis; settings: for Pre-emergence activity (GR80) on CONAR: lowest tested rate giving 80% or greater inhibition, approx. 14 days after planting and treating, greenhouse
Outline: as §1

POROL = experiment: Pre-emergence herbicidal activity on POROL (common purslane); type: in vivo, Portulaca oleracea; settings: for Pre-emergence activity (GR80) on PORAL: lowest tested rate giving 80% or greater inhibition, approx. 14 days after planting and treating, greenhouse
Outline: as §1

CIRAR = experiment: Pre-emergence herbicidal activity on CIRAR (canada thistle, seedling); type: in vivo, Cirsium arvense; settings: for Pre-emergence activity (GR80) on CIRAR: lowest tested rate giving 80% or greater inhibition, approx. 14 days after planting and treating, greenhouse
Outline: as §1

ECHCG = experiment: Pre-emergence herbicidal activity on ECHCG (barnyardgrass); type: in vivo, Echinochloa crus-galli; settings: for Pre-emergence activity (GR80) on ECHCG: lowest tested rate giving 80% or greater inhibition, approx. 14 days after planting and treating, greenhouse
Outline: as §1

PANMI = experiment: Pre-emergence herbicidal activity on PANMI (wild proso millet); type: in vivo, Panicum miliaceum; settings: for Pre-emergence activity (GR80) on PANMI: lowest tested rate giving 80% or greater inhibition, approx. 14 days after planting and treating, greenhouse
Outline: as §1

SORHA = experiment: Pre-emergence herbicidal activity on SORHA (johnsongrass, seedling); type: in vivo, Sorghum halepense; settings: for Pre-emergence activity (GR80) on SORHA: lowest tested rate giving 80% or greater inhibition, approx. 14 days after planting and treating, greenhouse
Outline: as §1

SETFA = experiment: Pre-emergence herbicidal activity on SETFA (giant foxtail); type: in vivo, Setaria faberi; settings: for Pre-emergence activity (GR80) on SETFA: lowest tested rate giving 80% or greater inhibition, approx. 14 days after planting and treating, greenhouse
Outline: as §1

PANDI = experiment: Pre-emergence herbicidal activity on PANDI (fall panicum); type: in vivo, Panicum dichotomiflorum; settings: for Pre-emergence activity (GR80) on PANDI: lowest tested rate giving 80% or greater inhibition, approx. 14 days after planting and treating, greenhouse
Outline: as §1

SORVU = experiment: Pre-emergence herbicidal activity on SORVU (shattercane); type: in vivo, Sorghum vulgare; settings: for Pre-emergence activity (GR80) on SORVU: lowest tested rate giving 80% or greater inhibition, approx. 14 days after planting and treating, greenhouse
Excerpt: All such uses, and the biological activity enabling such uses, are embraced by the term “herbicidal” herein. Tables 15 and 16 summarize results of tests conducted as described below to determine the pre-emergence herbicidal activity, in the form of a GR80 value, of illustrative compounds of this invention. […] Where herbicidal activity was evident but 80% inhibition was not achieved at the highest rate tested (typically 1000 g/ha), an asterisk (*) is shown in the following tables. Herbicidal activity evident in the form of symptoms of phytotoxicity, in the absence of at least 80% inhibition at any rate, is indicated in the tables by “phyto”. A blank cell in the following tables indicates no herbicidal or phytotoxic response at any rate tested.
(§2) The pre-emergence tests were conducted by the following procedure. Topsoil was sieved to pass through a 1.27 cm screen. Fertilizer was added to the topsoil and the mixture was then sterilized by heating. The topsoil mixture was placed in a pot and compacted to a depth of 1.0 to 1.25 cm from the top of the pot. Seeds of each of several monocotyledonous and dicotyledonous annual plant species were placed on top of the soil. Additional soil was subsequently placed over the seeds to level-fill the pot. A known amount of each test compound dissolved or suspended in an appropriate organic solvent was diluted with a 50:50 mix of acetone and water and applied to the surface of the soil. After treatment the plants were placed in a greenhouse with a 30/21° C. day/night temperature regime where they received 0.64 cm of overhead irrigation. All subsequent watering consisted of a light overhead mist and/or subirrigation as needed for germination and growth.
Approximately 14 days after planting and treating, the plants were observed and herbicidal efficacy recorded as percent inhibition by comparison with untreated plants.
The plant species usually regarded as weeds which were utilized in the tests are identified in the tables below according to the following legend, in which “d” indicates a dicotyledonous species and “m” a monocotyledonous species. All monocotyledonous species included in the tests herein are grasses.

BRAPP = experiment: Pre-emergence herbicidal activity on BRAPP (broadleaf signalgrass); type: in vivo, Brachiaria platyphylla; settings: for Pre-emergence activity (GR80) on BRAPP: lowest tested rate giving 80% or greater inhibition, approx. 14 days after planting and treating, greenhouse
Outline: as §1

DIGSA = experiment: Pre-emergence herbicidal activity on DIGSA (large crabgrass); type: in vivo, Digitaria sanguinalis; settings: for Pre-emergence activity (GR80) on DIGSA: lowest tested rate giving 80% or greater inhibition, approx. 14 days after planting and treating, greenhouse
Outline: as §1

[1] = system: monocotyledonous and dicotyledonous annual plant species; experiment: Greenhouse pre-emergence test, all species of the test taken together; type: in vivo; settings: rates 1000 to 10 g/ha, all species of Tables 19 and 20
Excerpt: All such uses, and the biological activity enabling such uses, are embraced by the term “herbicidal” herein. […] Where herbicidal activity was evident but 80% inhibition was not achieved at the highest rate tested (typically 1000 g/ha), an asterisk (*) is shown in the following tables. Herbicidal activity evident in the form of symptoms of phytotoxicity, in the absence of at least 80% inhibition at any rate, is indicated in the tables by “phyto”. A blank cell in the following tables indicates no herbicidal or phytotoxic response at any rate tested.
as §2
Pre-emergence herbicidal activity of the compound of Example 5, a racemic mixture of R- and S-enantiomers of N,N′-(1,2-propanediylbis)-3-(trifluoromethyl) benzamide, was compared with that of the individual R- and S-enantiomers, the compounds of Examples 5a and 5b respectively. The procedure was exactly as described above. Rates tested were 1000, 650, 300, 200, 100, 65, 30 and 10 g/ha.
In a greenhouse pre-emergence test conducted according to the procedure described hereinabove, R—N,N′-(1,2-propanediylbis)-3-(trifluoromethyl)benzamide (the compound of Example 5a) was applied at 200 g/ha and acetochlor was applied at 100 g/ha, both individually and in combination.
In the same greenhouse pre-emergence test, R-2-fluoro-3-trifluoromethyl-N-[1-methyl-2-(3-trifluoromethyl)phenylcarbonylamino]ethylbenzamide (the compound of Example 13) was applied at 100 g/ha and acetochlor was applied at 100 g/ha, both individually and in combination.

[2] = racemic mixture vs enantiomers test, rates tested 1000, 650, 300, 200, 100, 65, 30 and 10 g/ha, lowest rate with 80% or greater inhibition

SMILES	Pre-emergence activity (GR80) on ABUTH (ABUTH) [g/ha]	Pre-emergence activity (GR80) on SOLNI (SOLNI) [g/ha]	Pre-emergence activity (GR80) on AMARE (AMARE) [g/ha]	Pre-emergence activity (GR80) on DATST (DATST) [g/ha]	Pre-emergence activity (GR80) on CHEAL (CHEAL) [g/ha]	Pre-emergence activity (GR80) on CONAR (CONAR)	Pre-emergence activity (GR80) on PORAL (POROL) [g/ha]	Pre-emergence activity (GR80) on CIRAR (CIRAR) [g/ha]	Pre-emergence activity (GR80) on ECHCG (ECHCG)	Pre-emergence activity (GR80) on PANMI (PANMI) [g/ha]	Pre-emergence activity (GR80) on SORHA (SORHA) [g/ha]	Pre-emergence activity (GR80) on SETFA (SETFA) [g/ha]	Pre-emergence activity (GR80) on PANDI (PANDI) [g/ha]	Pre-emergence activity (GR80) on SORVU (SORVU)	Pre-emergence activity (GR80) on BRAPP (BRAPP) [g/ha]	Pre-emergence activity (GR80) on DIGSA (DIGSA) [g/ha]	also measured
CC(CNC(=O)c1cccc(C(F)(F)F)c1)NC(=O)c1ccccc1Cl (stereo not shown) [Example 103]	750	250	125	500	500	* (Where herbicidal activity was evident but 80% inhibition was not achieved at the highest rate tested (typically 1000 g/ha), an asterisk (*) is shown)	125	750	phyto	1000	500	500	500	phyto	750	500	–
CC(CNC(=O)c1cccc(C(F)(F)F)c1)NC(=O)c1cccc(C(F)(F)F)c1Cl (stereo not shown) [Example 14]	250	125	125	64	64	125 g/ha	125	64	1000 g/ha	500	500	250	250	phyto	500	125	–
CC(CNC(=O)c1cccc(C(F)(F)F)c1)NC(=O)c1cccc(C(F)(F)F)c1 (stereo not shown) [Example 5b]	–	–	–	–	–	–	–	–	–	–	–	–	–	–	–	–	Pre-emergence activity (GR80) ABUTH (ABUTH; [2]): [empty]; Pre-emergence activity (GR80) SOLNI (SOLNI; [2]): [empty]; Pre-emergence activity (GR80) AMARE (AMARE; [2]): [empty]; Pre-emergence activity (GR80) DATST (DATST; [2]): [empty]; Pre-emergence activity (GR80) CHEAL (CHEAL; [2]): [empty]; Pre-emergence activity (GR80) CONAR (CONAR; [2]): [empty]; Pre-emergence activity (GR80) PORAL (POROL; [2]): [empty]; Pre-emergence activity (GR80) CIRAR (CIRAR; [2]): [empty]; Pre-emergence activity (GR80) ECHCG (ECHCG; [2]): [empty]; Pre-emergence activity (GR80) PANMI (PANMI; [2]): [empty]; Pre-emergence activity (GR80) SORHA (SORHA; [2]): [empty]; Pre-emergence activity (GR80) SETFA (SETFA; [2]): [empty]; Pre-emergence activity (GR80) PANDI (PANDI; [2]): [empty]; Pre-emergence activity (GR80) SORVU (SORVU; [2]): [empty]; Pre-emergence activity (GR80) BRAPP (BRAPP; [2]): [empty]; Pre-emergence activity (GR80) DIGSA (DIGSA; [2]): [empty]; pre-emergence herbicidal activity (in words) [1]: completely inactive
